Data set [1] is described as follows: DPPH radical scavenging assay. Format: biochemical. The procedure:
Likewise, L-ASA, the 1,2,3-triazole L-ASA derivatives with free C2-OH and C3-OH groups were expected to be potent antioxidants. Therefore, they were tested as radical scavengers by reaction with the stable free radical 2,2-diphenyl-1-picrylhydrazyl (DPPH^•).
Antioxidant capacity of selected compounds was assessed by 2,2-diphenyl-1-picrylhydrazyl assay (DPPH, Sigma Aldrich, Darmstadt, Germany), in which the antioxidant activity of compounds is measured by the reaction between a stable radical of 1,1-diphenyl-2-picylhydrazil (DPPH^•) and a selected compound according to the manufacturer recommendations. Briefly, compounds 4b–4e, 4f–4h, 4k, 4l, 4o, 4p–4s, 4t, 4v, 7c–7f, 7i–7n, 7q, 7p, and 7o were tested at 0.06, 0.12, 0.18, 0.23, 0.25, and 0.28 mM. L-ascorbic acid was used as the reference compound. Absorbance was measured 5 and 10 min after incubation of the compounds with the DPPH reagent. The reduction of DPPH with selected compounds was monitored by measuring the absorbance at a wavelength of 517 nm on the monochromator (Infinite M200 PRO, TECAN, Männedorf, Switzerland).
For orientation: Loss of DPPH colour is used to gauge radical scavenging.

Data set [2] deals with A549 (lung adenocarcinoma). The data set can be described thus: MTT proliferation assay, A549. Format: cell-based. The settings on record: Homo sapiens, 72 h. The procedure:
(§1) Human tumor cell lines HeLa (cervical carcinoma), SW620 (colorectal adenocarcinoma, metastatic), A549 (lung adenocarcinoma), MCF−7 (breast adenocarcinoma), CFPAC-1 (pancreatic adenocarcinoma, metastatic), HCT-116 (colorectal carcinoma), and HepG2 (hepatocellular carcinoma), and normal cell lines HFF-1 (foreskin fibroblasts) and WI-38 (immortalized human lung fibroblast), were from the US American Type Culture Collection (ATCC, Manassas, VA, USA). Cells were cultured in a liquid nutrient medium (Dulbecco’s Modified Eagle Medium, LONZA, Basel, Switzerland) supplemented with 10% fetal bovine serum (FBS, Gibco, Grand Island, NY, USA), 2 mM L-glutamine (GIBCO, Grand Island, NY, USA), 100 μg/mL penicillin, and 100 μg/mL streptomycin (LONZA, Basel, Switzerland), in an incubator (NÜVE, Ankara, Turkey), at a humid atmosphere with 5% CO2 at 37 °C. Trypsin/EDTA Solution (Lonza, Basel, Switzerland), was used for cell passaging and cell detachment.
(§2) Adherent cells were seeded on 96 well microtiter plates (Falcon, New York, NY, USA) at a seeding density of 5000 cells per well, added in 150 μL of cell suspension in a nutrient medium. 24 h after seeding, cells were treated with compound 4b–4g, 4i, 4k–4t, 4v, 7c–7g, and 7i–7q dilutions in the range of 0.01 μM to 100 μM. L-ascoric acid (Sigma Aldrich, Darmstadt, Germany) and Carboxyamidotriazole (Sigma Aldrich, Darmstadt, Germany) were used as control compounds. Incubation of the cells with the compounds were performed for 72 h in a 5% CO2, in humid atmosphere at 37 °C. After incubation, nutrient medium was removed and 40 μL of the MTT reagent ([…]-2,5-diphenyltetrazole bromide (Invitrogen, Carlsbad, CA, USA) was added to each well. 3 h after incubation, 160 μL of DMSO (VWR CHEMICALS, Radnor, PA, USA) were added to each well to dissolve the crystals of purple formazane. The absorbance was measured at 570 nm (TECAN SUNRISE Microtiter plate reader (Männedorf, Switzerland). The experimentally measured optical densities (OD) were converted to the PG (percentage of growth), using the formulas according to the protocol assumed by NIH (National Institute of Health). The IC50 values (concentration causing 50% cell growth inhibition) for each compound were calculated by regression analysis of the survival count curve of the concentrations of the tested compounds. The results were processed in Excel 2010 (Microsoft, Redmond, WA, USA).
(Formazan colour is commonly taken as a measure of viable cells.)

The subject of data set [3] is CFPAC-1 (ductal pancreatic adenocarcinoma). The data set can be described thus: MTT proliferation assay, CFPAC-1. Format: cell-based. Conditions: Homo sapiens, 72 h. The procedure:
as §1, §2

The test system of data set [4] is HCT-116 (colorectal carcinoma). Put plainly: MTT proliferation assay, HCT-116. In kind it is cell-based. Conditions: Homo sapiens, 72 h. The procedure:
as §1, §2

Data set [5] has as its system HeLa (cervical carcinoma). Put plainly: MTT proliferation assay, HeLa. Format: cell-based. The settings on record: Homo sapiens, 72 h. The procedure: as §1, §2
The subject of data set [6] is HepG2 (hepatocellular carcinoma). The data set can be described thus: MTT proliferation assay, HepG2. In kind it is cell-based. The settings on record: Homo sapiens, 72 h. The method, then: as §1, §2
The test system of data set [7] is MCF-7 (breast adenocarcinoma). The data set can be described thus: MTT proliferation assay, MCF-7. Conditions: Homo sapiens, MCF7; 72 h, MTT. In kind it is cell-based, Human. The method, then:
as §1, §2

In data set [8] the test system is SW620 (colorectal adenocarcinoma, metastatic). Put plainly: MTT proliferation assay, SW620. In kind it is cell-based. The settings on record: Homo sapiens, SW-620, 72 h. The procedure: as §1, §2
Data set [9] has as its system WI-38 (lung fibroblasts). Put plainly: MTT proliferation assay, WI-38. In kind it is cell-based. The settings on record: Homo sapiens, 72 h, normal lung fibroblasts. The method, then:
as §1, §2

The test system of data set [10] is HFF-1 (foreskin fibroblasts). Put plainly: MTT proliferation assay, HFF-1. Format: cell-based. The settings on record: Homo sapiens, 72 h, normal foreskin fibroblasts. The procedure:
as §1, §2

The mark [11] stands for this setting: 5 min treatment, read-out: IC50 of DPPH• inhibition, Treatm. 5 min.
Setting [12] is: 10 min treatment, read-out: IC50 of DPPH• inhibition, Treatm. 10 min.

Molecules are shown by their SMILES. Read-outs that look alike come from different tables or passages of the source.

IC50 and melting point data for six compounds are collected here from PMC6801448, “The Antioxidant and Antiproliferative Activities of 1,2,3-Triazolyl-L-Ascorbic Acid Derivatives” (International Journal of Molecular Sciences, 2019).

The term IC50 denotes the concentration needed to halve the response being measured. As usually defined, the melting point is the temperature of the solid-liquid transition.

With `O=C1O[C@H]([C@@H](O)Cn2cc(CNS(=O)(=O)c3ccc(F)cc3Cl)nn2)C(O)=C1O` [Compound 4t], the melting point was in the range of 198 to 200 °C. Further, the IC50 in data set [1] (setting [11]) was 220 ± 80 µM. Further, the IC50 in data set [1] (setting [12]) is 120 ± 20 µM. Besides, the IC50 in data set [2] is above 100 µM. In addition, the IC50 in data set [3] is above 100 µM. The IC50 in data set [4] is above 100 µM. For the same compound, the IC50 in data set [5] is above 100 µM. For the same compound, in [6], the IC50 was above 100 µM. Further, in data set [7], the IC50 is above 100 µM. In data set [8], this compound came in with an IC50 above 100 µM. The same compound gave an IC50 in data set [9] above 100 µM. Moreover, the IC50 in data set [10] was above 100 µM.

As for `O=C1O[C@H]([C@@H](O)Cn2cc(C3CC3)nn2)C(O)=C1O` [Compound 4l, 6-[4-cyclopropyl-1,2,3-triazol-1-yl]-6-deoxy-L-ascorbic acid], the melting point lay in the range of 119 to 121 °C. Also, the IC50 in data set [1] (setting [11]) stood at 170 ± 160 µM. Besides, the IC50 in data set [1] (setting [12]) turned out to be 160 ± 140 µM. Also, the IC50 in data set [2] was above 100 µM. The compound also returned an IC50 in data set [3] above 100 µM. For the same compound, the half-maximal inhibitory concentration (IC50) in [4] is above 100 µM. The IC50 in data set [5] is above 100 µM. The compound further showed an IC50 in data set [6] above 100 µM. The compound further came in with an IC50 in data set [7] above 100 µM. In addition, the IC50 in data set [8] is above 100 µM. In data set [9], this compound gave an IC50 above 100 µM. In addition, the IC50 in [10] is 4.61 µM.

In the case of `O=C1O[C@H]([C@@H](O)Cn2cc(-c3cc(C(F)(F)F)cc(C(F)(F)F)c3)nn2)C(O)=C1O` [Compound 4c, 6-deoxy-6-[4-(3,5-bis(trifluoromethyl)phenyl)-1,2,3-triazol-1-yl]-L-ascorbic acid], the melting point is at least 250 °C. For the same compound, in [1] (setting [11]), the IC50 is 260 ± 20 µM. In addition, the IC50 in [1] (setting [12]) was found to be 250 µM. Besides, the IC50 in [2] was above 100 µM. In addition, in [3], the IC50 was above 100 µM. Also, in data set [4], the IC50 is above 100 µM. Further, in [5], the IC50 is above 100 µM. In addition, the IC50 in data set [6] was above 100 µM. Further, the IC50 in data set [7] is above 100 µM. The IC50 in data set [8] is above 100 µM. For the same compound, the half-maximal inhibitory concentration (IC50) in data set [9] is above 100 µM. Further, the half-maximal inhibitory concentration (IC50) in [10] is above 100 µM.

For `CCCCCCCCCCc1cn(C[C@H](O)[C@H]2OC(=O)C(O)=C2O)nn1` [Compound 4n, 6-(4-decyl-1,2,3-triazol-1-yl)-6-deoxy-L-ascorbic acid], the melting point fell in the range of 140 to 142 °C. The IC50 in data set [1] (setting [11]) was determined as 150 ± 60 µM. Moreover, the IC50 in data set [1] (setting [12]) was 100 ± 30 µM. In data set [2], this compound gave an IC50 above 100 µM. Further, the IC50 in data set [3] is above 100 µM. Moreover, the IC50 in data set [4] is above 100 µM. In data set [5], the IC50 is above 100 µM. This compound came in with a half-inhibitory concentration (IC50) in data set [6] above 100 µM. This compound had an IC50 in [7] above 100 µM. This compound also showed a half-maximal inhibitory concentration (IC50) in data set [8] above 100 µM. In [9], the IC50 is above 100 µM. In addition, half-maximal inhibition in data set [10] (IC50) was put at 0.06 µM.

As to `O=C1O[C@H]([C@@H](O)Cn2cc(CNS(=O)(=O)c3ccc(Cl)cc3)nn2)C(O)=C1O` [Compound 4s], the melting point was 132 to 134 °C. For the same compound, the IC50 in [1] (setting [11]) stood at 270 ± 20 µM. Besides, the IC50 in [1] (setting [12]) is 250 µM. In addition, the IC50 in [2] was above 100 µM. In [3], the IC50 is above 100 µM. In [4], the 50% inhibitory concentration (IC50) is above 100 µM. In data set [5], this compound came in with a half-inhibitory concentration (IC50) above 100 µM. In addition, the half-maximal inhibitory concentration (IC50) in [6] was above 100 µM. The same compound displayed an IC50 in [7] above 100 µM. Besides, in data set [8], the concentration for half-maximal inhibition (IC50) is above 100 µM. The compound also gave an IC50 in data set [9] above 100 µM. In data set [10], this compound registered an IC50 of 0.4 µM.

The compound `CCCCc1cn(C[C@H](O)[C@H]2OC(=O)C(O)=C2O)nn1` [Compound 4m, 6-(4-butyl-1,2,3-triazol-1-yl)-6-deoxy-L-ascorbic acid] came in with a melting point of 98 to 99 °C. Further, in data set [1] (setting [11]), the IC50 was above 280 µM. In addition, the IC50 in [1] (setting [12]) was above 280 µM. In [2], this compound displayed an IC50 above 100 µM. This compound returned an IC50 in data set [3] above 100 µM. This compound also showed an IC50 in data set [4] above 100 µM. This compound also registered an IC50 in [5] above 100 µM. In [6], this compound showed a half-inhibitory concentration (IC50) above 100 µM. In [7], the IC50 was above 100 µM. In data set [8], the IC50 is above 100 µM. This compound also showed an IC50 in [9] above 100 µM. The same compound showed a concentration for half-maximal inhibition (IC50) in [10] of 0.12 µM.
